Measurements reported in patent US20240408169A1 (priority 2023, published 2024).
pIC50: −log10 of the molar value. Where two headings read alike, the source gives them in different places. *1 amine or outer side, *2 acyl side, *3 side chain or, on linkers, in order; H or OH if unused. Where a SMILES comes first, the peptide text is derived from it. Bridges are numbered along the chain shown (N, C = ends). [ ]: non-standard residue; d: D form. The star is where a group is joined. X146 = CC(C)C(=O)N1[C@@H]2CC[C@H]1C=C(c1ccc(Cl)cc1C[C@@H](C(=O)[*:2])N(C)[*:1])C2; X7 = CC(C)C(=O)N1[C@H]2CC[C@@H]1C=C(c1ccc(F)cc1C[C@@H](C(=O)[*:2])N(C)[*:1])C2; NMePhe(2-(4-MorPh),5-Cl) = CN[C@@H](Cc1cc(Cl)ccc1-c1ccc(N2CCOCC2)cc1)C(=O)O; X202 = CN([C@@H](Cc1cc(Cl)ccc1-c1ccc(N2CCN(CC(F)F)CC2)cc1)C(=O)[*:2])[*:1]; X119 = CC(=O)N1C2C=C(c3ccc(F)cc3C[C@@H](C(=O)[*:2])N(C)[*:1])CC1COC2; X134 = CN([C@@H](Cc1cc(Cl)ccc1-c1cnc2[nH]c(O)cc2c1)C(=O)[*:2])[*:1]; NMePhe(5-Cl,2-O(2-Pym)) = CN[C@@H](Cc1cc(Cl)ccc1Oc1ncccn1)C(=O)O; X171 = CC(=O)N1CC=C(c2ncc(Cl)cc2C[C@@H](C(=O)[*:2])N(C)[*:1])CC1; NMehhhLys(Me) = CN([C@@H](CCCCCCCN(C)[*:3])C(=O)[*:2])[*:1]; X139 = Cc1[nH]ncc1-c1ccc(Cl)cc1C[C@@H](C(=O)[*:2])N(C)[*:1]; X131 = CN([C@@H](Cc1cc(F)cnc1-c1cnn(C)c1)C(=O)[*:2])[*:1]; X44 = Cc1nnc(-c2ccc(Cl)cc2C[C@@H](C(=O)[*:2])N(C)[*:1])o1; NMe3Pal(2-OcPr,5-F) = CN[C@@H](Cc1cc(F)cnc1OC1CC1)C(=O)O; NMe(hhhLys) = CN([C@@H](CCCCCCCN[*:3])C(=O)[*:2])[*:1]; Cyclobutanecarbonyl(1-CF3) = O=C(C1(C(F)(F)F)CCC1)*; cBuCO(3,3-F2-1-CF3) = O=C(C1(C(F)(F)F)CC(F)(F)C1)*; X182 = N#Cc1ccc(CC[C@H](N[*:1])C(=O)[*:2])cn1; Pro(trans-4-F) = O=C(O)[C@@H]1C[C@@H](F)CN1; Gly(cPr) = N[C@H](C(=O)O)C1CC1

How the values were obtained:
OVCAR3 cells = assay: MTT proliferation assay, OVCAR3; type: cell-based; settings: 5 days compound exposure, 1:3 serial dilution starting at 10 μM;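 note: compound given as an 8- or 10-point series, one day after plating, with exposure covering roughly 3-4 cell doublings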
CyclinE1/CDK2 = target: T1, CyclinE1/CDK2 (Homo sapiens, UniProt P24864); assay: Fluorescence Polarization (FP) competitive binding assay, Cyclin E1/Cdk2;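 note: readings taken after two-hour equilibration at room temperature in HEPES buffer with NaCl, DTT, NP-40 and BSA, IC50 fitted from eight-concentration serial dilution series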
T1 construct: purchased Eurofins, discovery 14-475

CyclinB1/CDK1 = target: T2, CyclinB1/CDK1 (Homo sapiens, UniProt P14635); assay: Fluorescence Polarization (FP) competitive binding assay, Cyclin B1/Cdk1;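 note: fluorescence polarization read after equilibration at room temperature, with IC50 taken from serially diluted dose-response curves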
T2 construct: purchased Eurofins, discovery 14-450

CyclinA2/CDK2 = target: T3, CyclinA2/CDK2 (Homo sapiens, UniProt P20248); assay: Fluorescence Polarization (FP) competitive binding assay, Cyclin A2/Cdk2;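 note: plates equilibrated two hours at room temperature before polarization reading, IC50 fitted from eight-concentration compound titration curves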
T3 construct: purchased CRELUX Protein Services

NCI-H1048 cells = assay: MTT proliferation assay, NCI-H1048; type: cell-based; settings: 5 days compound exposure, 1:3 serial dilution starting at 10 μM;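 note: Dose-response in 96-well plates over 8 or 10 concentration points, with exposure spanning 3-4 cell doublings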
[1] = 10 nM Cyclin E1/Cdk2, 2 nM FAM probe, average of 2-3 independent experiments, read-out: Cyclin E FP IC50
[2] = 10 nM Cyclin B1/Cdk1, 2 nM FAM probe; average of 2-3 independent experiments; read-out: Cyclin B FP IC50
[3] = 8 nM Cyclin A2/Cdk2, 2 nM FAM probe, average of 2-3 independent experiments, read-out: Cyclin A FP IC50

Row | SMILES | GI50 (OVCAR3 cells) [nM] | pIC50 (CyclinE1/CDK2; [1]) | pIC50 (CyclinB1/CDK1; [2]) | pIC50 (CyclinA2/CDK2; [3]) | GI50 (NCI-H1048 cells) [nM] | pIC50 (CyclinE1/CDK2) | pIC50 (CyclinB1/CDK1; read-out: Cyclin B FP IC50; 10 nM Cyclin B1/Cdk1, 2 nM FAM probe; average of 2-3 independent experiments) | pIC50 (CyclinA2/CDK2)
1 | CC(C)C[C@@H]1NC(=O)[C@@H](N(C)C(=O)[C@@H](NC(=O)[C@@H]2C[C@@H](F)CN2C(=O)C2(C(F)(F)F)CC(F)(F)C2)C2CC2)CCCCCCCN(C)C(=O)[C@H](Cc2cc(F)cnc2OC2CC2)N(C)C1=O [Example 128] ({cBuCO(3,3-F2-1-CF3)}-[Pro(trans-4-F)][Gly(cPr)][NMehhhLys(Me)]L[NMe3Pal(2-OcPr,5-F)]; lactam 3-C) | 30 | 6.72 | 7.70 | 7.10 | 30 | – | – | –
2 | CC(C)C[C@@H]1NC(=O)[C@@H](N(C)C(=O)[C@@H](NC(=O)[C@@H]2C[C@@H](F)CN2C(=O)C2(C(F)(F)F)CC(F)(F)C2)C2CC2)C/C=C\CCCCN(C)C(=O)[C@H](Cc2cc(Cl)ccc2-c2cnn(S(C)(=O)=O)c2)N(C)C1=O [Example 298] | 20 | 6.36 | 7.70 | 7.30 | 10 | – | – | –
3 | CC(C)C[C@@H]1NC(=O)[C@@H](N(C)C(=O)[C@H](CCc2ccc(C#N)nc2)NC(=O)[C@@H]2C[C@@H](F)CN2C(=O)C2(C(F)(F)F)CC(F)(F)C2)CCCCCCCN(C)C(=O)[C@H](Cc2cc(Cl)ccc2-c2ccc(N3CCOCC3)cc2)N(C)C1=O [Example 416] ({cBuCO(3,3-F2-1-CF3)}-[Pro(trans-4-F)][X182][NMehhhLys(Me)]L[NMePhe(2-(4-MorPh),5-Cl)]; lactam 3-C) | 40 | 5.40 | 7.70 | 7.40 | 30 | – | – | –
4 | CC(C)C[C@@H]1NC(=O)[C@@H](N(C)C(=O)[C@@H](NC(=O)[C@@H]2C[C@@H](F)CN2C(=O)C2(C(F)(F)F)CC(F)(F)C2)C2CC2)CCCCCCCN(C)C(=O)[C@H](Cc2cc(Cl)ccc2-c2cnc3[nH]c(O)cc3c2)N(C)C1=O [Example 272] ({cBuCO(3,3-F2-1-CF3)}-[Pro(trans-4-F)][Gly(cPr)][NMehhhLys(Me)]L[X134]; lactam 3-C) | 430 | 5.80 | 7.70 | 7.30 | 90 | – | – | –
5 | CC(C)C[C@@H]1NC(=O)[C@@H](N(C)C(=O)[C@@H](NC(=O)[C@@H]2C[C@@H](F)CN2C(=O)C2(C(F)(F)F)CC(F)(F)C2)C2CC2)CC=CCCCCNC(=O)[C@H](Cc2cc(Cl)ccc2C2=CCN(S(C)(=O)=O)CC2)N(C)C1=O [Example 23] | 210 | 5.26 | 7.70 | 6.92 | 180 | – | – | –
6 | CC(C)C[C@@H]1NC(=O)[C@@H](NC(=O)[C@@H](NC(=O)[C@@H]2C[C@@H](F)CN2C(=O)C2(C(F)(F)F)CC(F)(F)C2)C2CC2)CCCCCCCNC(=O)[C@H](Cc2cc(Cl)ccc2Cl)N(C)C1=O [Example 8] | 30 | 7.00 | 7.70 | 7.52 | 20 | – | – | –
7 | CC(C)C[C@@H]1NC(=O)[C@@H](N(C)C(=O)[C@@H](NC(=O)[C@@H]2C[C@@H](F)CN2C(=O)C2(C(F)(F)F)CC(F)(F)C2)C2CC2)CCCCCCCNC(=O)[C@H](Cc2cc(F)ccc2C2=C[C@H]3CC[C@@H](C2)N3C(=O)C(C)C)N(C)C1=O [Example 316] ({cBuCO(3,3-F2-1-CF3)}-[Pro(trans-4-F)][Gly(cPr)][NMe(hhhLys)]L[X7]; lactam 3-C) | 10 | 6.54 | 7.70 | 7.70 | 10 | – | – | –
8 | CC(C)C[C@@H]1NC(=O)[C@@H](N(C)C(=O)[C@@H](NC(=O)[C@@H]2C[C@@H](F)CN2C(=O)C2(C(F)(F)F)CC(F)(F)C2)C2CC2)CC=CCCCCN(C)C(=O)[C@H](Cc2cc(F)cnc2OC2CC2)N(C)C1=O [Example 126] | 310 | 6.21 | 7.70 | 6.30 | 380 | – | – | –
9 | CC(C)C[C@@H]1NC(=O)[C@@H](N(C)C(=O)[C@@H](NC(=O)[C@@H]2C[C@@H](F)CN2C(=O)C2(C(F)(F)F)CC(F)(F)C2)C2CC2)CC=CCCCCN(C)C(=O)[C@H](Cc2cc(F)ccc2-c2cnn(C3CCOCC3)c2)N(C)C1=O [Example 84] | 10 | 6.54 | 7.70 | 7.30 | 20 | – | – | –
10 | CC(=O)N1C2C=C(c3ccc(F)cc3C[C@H]3C(=O)N(C)CCCCCCC[C@H](N(C)C(=O)[C@@H](NC(=O)[C@@H]4C[C@@H](F)CN4C(=O)C4(C(F)(F)F)CC(F)(F)C4)C4CC4)C(=O)N[C@@H](CC(C)C)C(=O)N3C)CC1COC2 (stereo partly drawn) [Example 124] ({cBuCO(3,3-F2-1-CF3)}-[Pro(trans-4-F)][Gly(cPr)][NMehhhLys(Me)]L[X119]; lactam 3-C) | 20 | 6.27 | 7.70 | 7.70 | 20 | – | – | –
11 | CCN1CCCCCCC[C@H](N(C)C(=O)[C@@H](NC(=O)[C@@H]2C[C@@H](F)CN2C(=O)C2(C(F)(F)F)CC(F)(F)C2)C2CC2)C(=O)N[C@@H](CC(C)C)C(=O)N(C)[C@@H](Cc2cc(Cl)ccc2-c2ccc(N3CCOCC3)cc2)C1=O [Example 404] | 30 | 5.82 | 7.70 | 7.70 | 20 | – | – | –
12 | CC(=O)N1CC=C(c2ncc(Cl)cc2C[C@H]2C(=O)NCCCCCCC[C@H](N(C)C(=O)[C@@H](NC(=O)[C@@H]3C[C@@H](F)CN3C(=O)C3(C(F)(F)F)CC(F)(F)C3)C3CC3)C(=O)N[C@@H](CC(C)C)C(=O)N2C)CC1 [Example 302] ({cBuCO(3,3-F2-1-CF3)}-[Pro(trans-4-F)][Gly(cPr)][NMe(hhhLys)]L[X171]; lactam 3-C) | 120 | 5.45 | 7.70 | 7.30 | 140 | – | – | –
13 | CC(C)C[C@@H]1NC(=O)[C@@H](N(C)C(=O)[C@@H](NC(=O)[C@@H]2C[C@@H](F)CN2C(=O)C2(C(F)(F)F)CC(F)(F)C2)C2CC2)CCCCCCCN(C)C(=O)[C@H](Cc2cc(Cl)ccc2-c2ccc(N3CCN(CC(F)F)CC3)cc2)N(C)C1=O [Example 352] ({cBuCO(3,3-F2-1-CF3)}-[Pro(trans-4-F)][Gly(cPr)][NMehhhLys(Me)]L[X202]; lactam 3-C) | 10 | 6.29 | 7.70 | 7.70 | 10 | – | – | –
14 | CC(C)C[C@@H]1NC(=O)[C@@H](N(C)C(=O)[C@@H](NC(=O)[C@@H]2C[C@@H](F)CN2C(=O)C2(C(F)(F)F)CC(F)(F)C2)C2CC2)CCCCCCCNC(=O)[C@H](Cc2cc(Cl)ccc2C2=C[C@@H]3CC[C@H](C2)N3C(=O)C(C)C)N(C)C1=O [Example 312] ({cBuCO(3,3-F2-1-CF3)}-[Pro(trans-4-F)][Gly(cPr)][NMe(hhhLys)]L[X146]; lactam 3-C) | 30 | 6.13 | 7.70 | 7.70 | 20 | – | – | –
15 | CC(C)C[C@@H]1NC(=O)[C@@H](N(C)C(=O)[C@@H](NC(=O)[C@@H]2C[C@@H](F)CN2C(=O)C2(C(F)(F)F)CC(F)(F)C2)C2CC2)CCCCCCCN(C)C(=O)[C@H](Cc2cc(F)cnc2-c2cnn(C)c2)N(C)C1=O [Example 244] ({cBuCO(3,3-F2-1-CF3)}-[Pro(trans-4-F)][Gly(cPr)][NMehhhLys(Me)]L[X131]; lactam 3-C) | 40 | 6.24 | 7.70 | 7.22 | 100 | – | – | –
16 | CC(C)C[C@@H]1NC(=O)[C@@H](NC(=O)[C@@H](NC(=O)[C@@H]2C[C@@H](F)CN2C(=O)C2(C(F)(F)F)CC(F)(F)C2)C2CC2)CC=CCCCCNC(=O)[C@H](Cc2cc(Cl)ccc2Cl)N(C)C1=O [Example 4] | 60 | 7.00 | 7.70 | 7.05 | 120 | – | – | –
17 | CC(C)C[C@@H]1NC(=O)[C@@H](N(C)C(=O)[C@H](C)NC(=O)[C@@H]2C[C@@H](F)CN2C(=O)C2(C(F)(F)F)CC(F)(F)C2)CC=CCCCCNC(=O)[C@H](Cc2cc(Cl)ccc2Cl)N(C)C1=O [Example 54] | 700 | 5.47 | 7.52 | 6.41 | 470 | – | – | –
18 | Cc1[nH]ncc1-c1ccc(Cl)cc1C[C@H]1C(=O)N(C)CCCCCCC[C@H](N(C)C(=O)[C@@H](NC(=O)[C@@H]2C[C@@H](F)CN2C(=O)C2(C(F)(F)F)CC(F)(F)C2)C2CC2)C(=O)N[C@@H](CC(C)C)C(=O)N1C [Example 211] ({cBuCO(3,3-F2-1-CF3)}-[Pro(trans-4-F)][Gly(cPr)][NMehhhLys(Me)]L[X139]; lactam 3-C) | 30 | – | – | – | 20 | 5.95 | 7.70 | 7.30
19 | Cc1nnc(-c2ccc(Cl)cc2C[C@H]2C(=O)N(C)CCCCCCC[C@H](N(C)C(=O)[C@@H](NC(=O)[C@@H]3C[C@@H](F)CN3C(=O)C3(C(F)(F)F)CCC3)C3CC3)C(=O)N[C@@H](CC(C)C)C(=O)N2C)o1 [Example 163] ({Cyclobutanecarbonyl(1-CF3)}-[Pro(trans-4-F)][Gly(cPr)][NMehhhLys(Me)]L[X44]; lactam 3-C) | 10 | 7.00 | 7.70 | 7.70 | 10 | – | – | –
20 | CC(C)C[C@@H]1NC(=O)[C@@H](N(C)C(=O)[C@@H](NC(=O)[C@@H]2C[C@@H](F)CN2C(=O)C2(C(F)(F)F)CCC2)C2CC2)CCCCCCCNC(=O)[C@H](Cc2cc(Cl)ccc2Oc2ncccn2)N(C)C1=O [Example 158] ({Cyclobutanecarbonyl(1-CF3)}-[Pro(trans-4-F)][Gly(cPr)][NMe(hhhLys)]L[NMePhe(5-Cl,2-O(2-Pym))]; lactam 3-C) | 20 | 6.68 | 7.70 | 7.00 | 20 | – | – | –
